Reference: ChEMBL document CHEMBL4732128, “Methylsulfanylpyridine based diheteroaryl isocombretastatin analogs as potent anti-proliferative agents” (Eur J Med Chem, 2021)
≈ marks a conversion by molar mass, not a printed value. One block for each compound: values may come before it. Calls of active or inactive are those of the source. No cut-off for these calls is given here.

What was measured:
[1] = Aqueous solubility of the compound in pH 7.0 phosphate buffer at 2 mg incubated for 72 hrs by shake flask method; format: physicochemical
[2] = Inhibition of bovine brain tubulin polymerization incubated for 30 mins by turbidimetric assay; format: tissue-based, Bos taurus
[3] = test system: HeLa; assay: Antiproliferative activity against human HeLa cells assessed as inhibition of cell growth after 72 hrs by XTT assay; format: functional, cell-based
[4] = test system: HT-29; assay: Antiproliferative activity against human HT-29 cells assessed as inhibition of cell growth after 72 hrs by XTT assay; format: functional, cell-based; settings: HT-29, 72 h
[5] = test system: HL-60; assay: Antiproliferative activity against human HL-60 cells assessed as inhibition of cell growth after 72 hrs by XTT assay; format: functional, cell-based; settings: HL-60, 72 h
[6] = test system: HeLa; assay: Induction of apoptosis in human HeLa cells assessed as increase in cell accumulation at sub-G0/G1 phase at 100 nM incubated for 48 hrs by propidium iodide staining based flow cytometry; format: functional
[7] = test system: HT-29; assay: Induction of cell cycle arrest in human HT-29 cells assessed as accumulation of cells at G2/M phase at 100 nM after 48 hrs by propidium iodide staining-based flow cytometric analysis; format: functional
[8] = test system: HT-29; assay: Induction of cell cycle arrest in human HT-29 cells assessed as accumulation of cells at S phase at 1 nM after 24 to 72 hrs by propidium iodide staining-based flow cytometric analysis; format: functional; settings: time 24-72 hrs
[9] = test system: HeLa; assay: Induction of apoptosis in human HeLa cells assessed as increase in cell accumulation at sub-G0/G1 phase at 100 nM incubated for 24 hrs by propidium iodide staining based flow cytometry; format: functional
[10] = test system: HL-60; assay: Induction of cell cycle arrest in human HL-60 cells assessed as accumulation of cells at G0/G1 phase at 1 nM after 24 to 72 hrs by propidium iodide staining-based flow cytometric analysis; format: functional; settings: time 24-72 hrs
[11] = test system: HT-29; assay: Induction of cell cycle arrest in human HT-29 cells assessed as accumulation of cells at Sub-G0/G1 phase at 1 nM after 24 to 72 hrs by propidium iodide staining-based flow cytometric analysis; format: functional; settings: time 24-72 hrs
[12] = molecular target: Tubulin (Homo sapiens) (UniProt P68371+Q9H4B7+P0DPH7+P68366+Q13509+Q71U36+P04350+Q3ZCM7+P07437+P68363+Q9BQE3+Q6PEY2+Q13885+Q9BVA1+Q9BUF5); assay: Induction of microtubule disruption in human HeLa cells at 1 uM measured after 24 hrs by immunofluorescence staining based confocal microscopic analysis; format: cell-based
[13] = test system: HeLa; assay: Induction of apoptosis in human HeLa cells assessed as increase in cell accumulation at sub-G0/G1 phase at 100 nM incubated for 72 hrs by propidium iodide staining based flow cytometry; format: functional
[14] = test system: HeLa; assay: Induction of mitotic arrest in human HeLa cells assessed as increase in MPM-2 expression at 1 uM incubated for 24 to 48 hrs by Western blot analysis; format: functional, cell-based; settings: time 24-48 hrs
[15] = test system: HT-29; assay: Induction of cell cycle arrest in human HT-29 cells assessed as accumulation of cells at G2/M phase after 24 hrs by propidium iodide staining-based flow cytometric analysis; format: functional
[16] = test system: HT-29; assay: Induction of cell cycle arrest in human HT-29 cells assessed as accumulation of cells at G0/G1 phase at 1 nM after 24 to 72 hrs by propidium iodide staining-based flow cytometric analysis; format: functional; settings: time 24-72 hrs
[17] = test system: HeLa; assay: Induction of cell cycle arrest in human HeLa cells assessed as accumulation of cells at S phase at 1 nM after 24 to 72 hrs by propidium iodide staining-based flow cytometric analysis; format: functional; settings: time 24-72 hrs
[18] = test system: HeLa; assay: Induction of cell cycle arrest in human HeLa cells assessed as accumulation of cells at G2/M phase at 100 nM after 24 hrs by propidium iodide staining-based flow cytometric analysis; format: functional
[19] = test system: HeLa; assay: Induction of apoptosis in human HeLa cells assessed as increase in cleaved PARP level at 1 uM after 24 to 48 hrs by Western blot analysis; format: functional, cell-based; settings: time 24-48 hrs
[20] = test system: HL-60; assay: Induction of cell cycle arrest in human HL-60 cells assessed as accumulation of cells at S phase at 1 nM after 24 to 72 hrs by propidium iodide staining-based flow cytometric analysis; format: functional; settings: time 24-72 hrs
[21] = test system: HeLa; assay: Induction of cell cycle arrest in human HeLa cells assessed as accumulation of cells at Sub-G0/G1 phase at 1 nM after 24 to 72 hrs by propidium iodide staining-based flow cytometric analysis; format: functional; settings: time 24-72 hrs
[22] = test system: HEK293; assay: Induction of mitotic arrest in human HEK293 cells; format: cell-based
[23] = test system: HeLa; assay: Induction of apoptosis in human HeLa cells assessed as accumulation of cells at sub-G0/G1 phase after 24 hrs by propidium iodide staining-based flow cytometric analysis; format: functional, cell-based
[24] = test system: HeLa; assay: Induction of cell cycle arrest in human HeLa cells assessed as accumulation of cells at G2/M phase after 24 hrs by propidium iodide staining-based flow cytometric analysis; format: functional
[25] = test system: HT-29; assay: Induction of cell cycle arrest in human HT-29 cells assessed as accumulation of cells at G2/M phase at 100 nM after 72 hrs by propidium iodide staining-based flow cytometric analysis; format: functional
[26] = test system: HL-60; assay: Induction of cell cycle arrest in human HL-60 cells assessed as accumulation of cells at G2/M phase at 100 nM after 48 hrs by propidium iodide staining-based flow cytometric analysis; format: functional
[27] = test system: HeLa; assay: Induction of cell cycle arrest in human HeLa cells assessed as accumulation of cells at G2/M phase at 100 nM after 48 hrs by propidium iodide staining-based flow cytometric analysis; format: functional
[28] = test system: HL-60; assay: Induction of apoptosis in human HL-60 cells assessed as increase in cell accumulation at sub-G0/G1 phase at 100 nM incubated for 48 hrs by propidium iodide staining based flow cytometry; format: functional
[29] = test system: HL-60; assay: Induction of cell cycle arrest in human HL-60 cells assessed as accumulation of cells at G2/M phase at 100 nM after 72 hrs by propidium iodide staining-based flow cytometric analysis; format: functional
[30] = test system: HEK293; assay: Induction of apoptosis in human HEK293 cells; format: cell-based
[31] = test system: HL-60; assay: Induction of cell cycle arrest in human HL-60 cells assessed as accumulation of cells at G2/M phase at 100 nM after 24 hrs by propidium iodide staining-based flow cytometric analysis; format: functional
[32] = test system: HeLa; assay: Induction of cell cycle arrest in human HeLa cells assessed as accumulation of cells at G2/M phase at 1 nM after 24 to 72 hrs by propidium iodide staining-based flow cytometric analysis; format: functional; settings: time 24-72 hrs
[33] = test system: HL-60; assay: Induction of cell cycle arrest in human HL-60 cells assessed as accumulation of cells at G2/M phase at 1 nM after 24 to 72 hrs by propidium iodide staining-based flow cytometric analysis; format: functional; settings: time 24-72 hrs
[34] = test system: HT-29; assay: Induction of cell cycle arrest in human HT-29 cells assessed as accumulation of cells at G2/M phase at 1 nM after 24 to 72 hrs by propidium iodide staining-based flow cytometric analysis; format: functional; settings: time 24-72 hrs
[35] = test system: HeLa; assay: Induction of cell cycle arrest in human HeLa cells assessed as accumulation of cells at G0/G1 phase at 1 nM after 24 to 72 hrs by propidium iodide staining-based flow cytometric analysis; format: functional; settings: time 24-72 hrs
[36] = test system: HeLa; assay: Induction of cell cycle arrest in human HeLa cells assessed as accumulation of cells at G2/M phase at 100 nM after 72 hrs by propidium iodide staining-based flow cytometric analysis; format: functional
[37] = test system: HL-60; assay: Induction of cell cycle arrest in human HL-60 cells assessed as accumulation of cells at Sub-G0/G1 phase at 1 nM after 24 to 72 hrs by propidium iodide staining-based flow cytometric analysis; format: functional; settings: time 24-72 hrs
[38] = test system: HL-60; assay: Induction of apoptosis in human HL-60 cells assessed as increase in cell accumulation at sub-G0/G1 phase at 100 nM incubated for 72 hrs by propidium iodide staining based flow cytometry; format: functional

solubility thermodynamic at 72 h [1]: 46.3 µg/mL (≈ 132 µM)
IC50 [2]: 400 nM
IC50 [3]: 579 nM
IC50 [4]: 587 nM
IC50 [5]: 604 nM
Compound: C=C(c1cc(SC)nc(SC)c1)c1ccc2c(c1)c(C#N)cn2C

solubility thermodynamic at 72 h [1]: 1 µg/mL (≈ 3.14 µM)
IC50 [2]: > 5000 nM
IC50 [3]: 652 nM
IC50 [4]: 787 nM
IC50 [5]: 435 nM
Compound: CSc1cc(C(=O)c2ccc(N(C)C)cc2)cc(SC)n1

solubility thermodynamic at 72 h [1]: 47.1 µg/mL (≈ 147 µM)
IC50 [2]: > 5000 nM
IC50 [3]: ≥ 10 nM
IC50 [4]: ≥ 10 nM
IC50 [5]: ≥ 10 nM
Compound: CSc1cc(C(=O)c2ccc(N(C)C)nc2)cc(SC)n1

solubility thermodynamic at 72 h [1]: 7.6 µg/mL (≈ 21.4 µM)
IC50 [2]: 1200 nM
IC50 [3]: 64 nM
IC50 [4]: 573 nM
IC50 [5]: 303 nM
Compound: C=C(c1cc(SC)nc(SC)c1)c1ccc2c(c1)c(C=O)cn2C

solubility thermodynamic at 72 h [1]: 35.7 µg/mL (≈ 118 µM)
IC50 [2]: 2000 nM
IC50 [3]: 399 nM
IC50 [4]: 550 nM
IC50 [5]: 306 nM
Compound: C=C(c1ccc(OC)cc1)c1cc(SC)nc(SC)c1

solubility thermodynamic at 72 h [1]: 6.3 µg/mL (≈ 18.4 µM)
Activity [12]: Active
IC50 [2]: 1600 nM
IC50 [3]: 72 nM
IC50 [4]: 876 nM
IC50 [5]: 38 nM
Compound: C=C(c1cc(Cl)nc(SC)c1)c1ccc2c(c1)c(C=O)cn2C
Activity [6]: 47.6%
Activity [7]: 11.8%
Activity [8]: inactive
Activity [9]: 25.2%
Activity [10]: inactive
Activity [11]: inactive
Activity [13]: 59.1%
Activity [14]: Active
Activity [15]: inactive
Activity [16]: inactive
Activity [17]: inactive
Activity [18]: 56.9%
Activity [19]: Active
Activity [20]: inactive
Activity [21]: inactive
Activity [22]: Toxic
Activity [23]: Active
Activity [24]: Active
Activity [25]: 15.1%
Activity [26]: 40.5%
Activity [27]: 30.4%
Activity [28]: 20.9%
Activity [29]: 22%
Activity [30]: Non-Toxic
Activity [31]: 80.1%
Activity [32]: inactive
Activity [33]: inactive
Activity [34]: inactive
Activity [35]: inactive
Activity [36]: 7.9%
Activity [37]: inactive
Activity [38]: 32.6%

solubility thermodynamic at 72 h [1]: 3.2 µg/mL (≈ 9.42 µM)
IC50 [2]: 600 nM
IC50 [3]: 158 nM
IC50 [4]: 278 nM
IC50 [5]: 74 nM
Compound: C=C(c1cc(Cl)nc(SC)c1)c1ccc2c(c1)c(C#N)cn2C

solubility thermodynamic at 72 h [1]: 1.3 µg/mL (≈ 4.08 µM)
IC50 [2]: > 5000 nM
IC50 [3]: ≥ 10 nM
IC50 [4]: ≥ 10 nM
IC50 [5]: ≥ 10 nM
Compound: CSc1cc(C(=O)c2cccc(N(C)C)c2)cc(SC)n1
